Bridge positions count the residues as written; N and C are the ends. Peptide text beside a SMILES is read from it.
What was measured:
PSA [1] = biological target: T1, PSA (Homo sapiens, UniProt P07288); test: Enzyme activity of PSA with chromogenic substrate S-2586; type: biochemical; design: PSA was purified from human seminal fluid as described previously (3); from tissue; host or cells: human seminal fluid; settings: GST-peptides, S-2586; for minimum peptide concentration affecting the activity: PSA enzyme activity
T1 sequence (P07288 25-261): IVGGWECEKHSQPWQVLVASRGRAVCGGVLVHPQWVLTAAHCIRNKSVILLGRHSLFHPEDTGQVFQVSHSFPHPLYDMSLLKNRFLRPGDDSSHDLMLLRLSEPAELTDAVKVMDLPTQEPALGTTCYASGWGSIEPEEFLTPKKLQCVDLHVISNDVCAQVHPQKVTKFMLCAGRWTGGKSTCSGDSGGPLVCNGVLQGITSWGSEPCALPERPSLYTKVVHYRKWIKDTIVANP
Method: The enzyme activity of PSA was studied in the presence of peptides alone or together with Zn^2+ by using the chymotrypsin substrate S-2586 (MeO-Suc-Arg-Pro-Tyr-pNA) (Chromogenix, Mölndal, Sweden). […] PSA (333 nM) was incubated with a 1-100-fold molar excess of GST-peptide or 100-fold excess of synthetic peptide in TBS buffer, pH 7.8 containing 0.5 g/L BSA for 1 h at 22° C. The effect of Zn^2+ on the enzyme activity of PSA was studied by including 1-200 μM of ZnCl2 in the reaction buffer. The combined effect of peptides and Zn2+ on the enzyme activity of PSA was studied by incubating PSA (333 nM) with peptide (333 nM) in the buffer containing 1-200 μM Zn^2+ for 1 h. After addition of substrate to a final concentration 0.2 mM, the absorbance was monitored at 5-min intervals for 2 h at 405 nm on a Labsystems Multiskan MCC/340 photometer (Labsystems, Helsinki, Finland). As a control, the effect of wild type GST on the enzyme activity of PSA was tested.
In the experiments, PSA (0.33 μM) was incubated with increasing concentrations of GST-C-4 (0-100-fold molar excess) for 1 h, after which the chromogenic substrate S-2586 was added and enzyme activity was monitored by measuring the absorbance at 405 nm. Data represent mean values from duplicate wells ±SE.
PSA (0.33 μM) was incubated with chemically synthesized peptides (100-fold molar excess) for 1 h, after which the chromogenic substrate S-2586 was added and enzyme activity was monitored by measuring the absorbance at 405 nm.
Because zinc is known to inhibit the enzyme activity of PSA, we further characterized the effect of GST-peptides on the enzyme activity of PSA by assessing the combined effect of peptides and Zn^2+. […] The effect of GST-C-4 and Zn^2+ on enzyme activity was determined by incubating PSA (0.33 μM) with the same molar concentration of GST-C-4 and various concentrations of Zn^2+. The reaction was monitored by measuring absorbance at 405 nm after addition of the chromogenic substrate S-2586. […] Data represent mean values from duplicate wells ±SE.
(§1) Data represent mean values from duplicate wells ±SE.
As control the enzyme activity of PSA alone was measured.
as §1
20 μg of the peptide was iodinated by the Iodogen method. After iodination the peptide was purified by using C18 Sep-Pak column.

PSA [2] = biological target: T1, PSA; test: Proteolytic cleavage of IGF-BP-3 by PSA, IGF-BP-3 IFMA; type: biochemical; design: PSA was purified from human seminal fluid as described previously (3); from tissue; host or cells: human seminal fluid; settings: PSA 5 μg/mL, 100-fold molar excess of synthetic peptide, IGF-BP-3 70 ng/mL, 16 h at 37° C.; PSA alone 30%
Method: The extent of the cleavage of the substrate was quantitated by monitoring the decrease in IGF-BP-3 immunoreactivity due to proteolytic cleavage of it. PSA (5 μg/mL) was incubated with IGF-BP-3 (70 ng/mL) for 16 h at 37° C. with 100-fold molar excess of peptides to PSA and measured for IGF-BP3 immunoreactivity by IFMA as described (33). As control, the peptide was also added to the reaction mixture containing PSA and IGF-BP3 just before starting the immunoassay to quantify the possible interference of the peptide in the IFMA for IGF-BP-3.
In the experiments, PSA (5 μg/mL) in TBS buffer, pH 7.8 alone or with 100-fold molar excess of peptide was incubated with IGF-BP-3 (70 ng/mL) for 16 h at 37° C., after which the concentration of intact IGF-BP-3 was determined by IFMA.

CVFTSDYAFC [Peptide A-1] was tested, and the EC50 (PSA [1]; PSA 0.33 μM, read-out: 50% stimulation (μM): peptide concentration required for half maximal stimulation of the enzyme activity of PSA) was 2.2 µM, the “minimum peptide concentration affecting the activity” value (PSA [1]) was 300 nM and the “cleavage of IGF-BP-3 by PSA in the presence of peptide” value (PSA [2]) was “about 70%”.

With `CC(C)C[C@@H]1NC(=O)[C@H](Cc2ccc(O)cc2)NC(=O)[C@H](CC(=O)O)NC(=O)[C@H](Cc2ccc(O)cc2)NC(=O)[C@H](CC(N)=O)NC(=O)[C@H](Cc2c[nH]cn2)NC(=O)[C@H](C)NC(=O)[C@H](Cc2ccccc2)NC(=O)[C@H](C(C)C)NC(=O)[C@@H](N)CSSC[C@@H](C(=O)O)NC(=O)[C@H](C(C)C)NC1=O` [Peptide B-2] (H-CVFAHNYDYLVC-OH; disulfide 1-12; N-terminus assumed) the “minimum peptide concentration affecting the activity” value (PSA [1]) was 300 nM.

— US7414023B2, “Peptide ligands for prostate specific antigen” (Licentia Ltd., priority 2000, dated 2008)
